Laboratory results published in patent US12264173B2 (GILEAD SCIENCES, INC., priority 2020, dated 2025).
pEC50, pIC50: −log10 of the molar value.

Assays:
POLRMT [1] = target: T1, POLRMT (Homo sapiens, UniProt O00411); assay: Inhibition of human mitochondrial RNA polymerase (POLRMT); type: biochemical; conditions: nucleotide triphosphate
Method: All reaction mixtures contained 50 mM Tris-HCl buffer (pH 8.0), 0.2 mg/ml BSA, 2 mM DTT, 0.05 mg/ml activated fish sperm DNA, 10 mM MgCl2, 1.3 μCi [α-^33P]dTTP (3,000 Ci/mmol), and 2 μMeach of dATP, dGTP, and TTP. The optimal enzyme concentrations were chosen to be in the linear range of enzyme concentration ([E]) versus activity, and the reaction time was selected to ensure that 10% of the substrate was consumed. All reactions were run at 37° C. […] The reactions were heated to 32° C. and initiated by adding 2.5 μM each of the four natural NTPs and 1.5 μCi of [^33P]GTP. After incubation for 30 min at 32° C., the reactions were spotted on DE81 paper before being processed for quantification.

DENV2 NS5 = DENV2 NS5 (Dengue virus type 2, UniProt P14340); assay: DENV Pol IC50 (DENV2-NS5 polymerase assay); type: biochemical; conditions: nucleotide triphosphate
Method: A 244 nucleotide secondary structureless heteropolymeric RNA (sshRNA) with sequence 5′-(UCAG)20(UCCAAG)14(UCAG)20-3′ (SEQ ID NO: 1) is used as the template with 5′-CUG-3′ primer in the DENV2-NS5 polymerase assay. Six two-fold dilutions of compounds starting from 200 nM and no inhibitor control are plated in 96-well plates. 100 nM DENV2 NS5 is preincubated for 5 minutes at room temperature in a reaction mixture containing 40 mM Tris-HCl (pH 7.5), 10 mM NaCl, 3 mM DTT, 0.2 unit/μL RNasin Plus RNase Inhibitor, 200 ng/μL sshRNA, 20 μM CUG and 2 mM MgCl2. Enzyme mix is added to compound dilutions and reactions initiated by the addition of a mixture containing 20 μM of three natural NTP plus 2 μM of analog:base matched competing natural NTP containing 1:100 α-33P-NTP. After 90 minutes at 30° C., 5 μL of the reaction mixtures are spotted on DE81 anion exchange paper. Filter papers are washed three times with Na2HPO4 (125 mM, pH 9) for 5 minutes, rinsed with water and ethanol, then air-dried and exposed to phosphorimager. Synthesized RNA is quantified using Typhoon Trio Imager and Image Quant TL Software and reaction rates are calculated by linear regression using GraphPad Prism 5.0. IC50 values are calculated in Prism by non-linear regression analysis using the dose-response (variable slope) equation (four-parameter logistic equation): Y=Bottom+(Top-Bottom)/(1+10^((Log IC50−X)*HillSlope)).

POLRMT [2] = target: T1, POLRMT; assay: Single nucleotide incorporation by human mitochondrial RNA polymerase (POLRMT); type: biochemical; conditions: nucleotide triphosphate
Method: A mixture of MTCN buffer (50 mM MES, 25 mM Tris-HCl, 25 mM CAPS, and 50 mM NaCl, pH 7.5), 200 nM 5′^32 P-R12/D18, 10 mM MgCl2, 1 mM DTT, and 376 nM POLRMT was preincubated at 30° C. for 1 min. The reaction was started by addition of 500 μM (final) natural NTP or NTP analogs. At selected time points, the reaction mixture was removed and quenched with gel loading buffer containing 100 mM EDTA, 80% formamide, and bromophenol blue, and heated at 65° C. for 5 min. The samples were run on a 20% polyacrylamide gel (8 M urea), and the product formation was quantified using Typhoon Trio Imager and Image Quant TL Software (GE Healthcare, Piscataway, NJ). The rate of single nucleotide incorporation by mt RNA pol was calculated by fitting the product formation using the single exponential equation: [1R13]=A(1−e^−kt), where [1R13] represents the amount (in nM) of the elongated product formed, t represents the reaction time, k represents the observed rate, and A represents the amplitude of the exponential.

RSV RNP complexes = target: T2, RSV RNP complexes (Human respiratory syncytial virus A, UniProt P28887); assay: RSV RNP assay (transcription); type: biochemical, RSV A2
T2 construct: The supernatant (S3) fraction, containing the enriched RSV RNP complexes, was collected; endogenous in cells; host or cells: HEp-2 cells infected with RSV A2; detergent-extracted S3 fraction
Method: RSV ribonucleoprotein (RNP) complexes were prepared from a method modified from Mason et al. (1). HEp-2 cells were plated at a density of 7.1×10^4 cells/cm^2 in MEM+10% fetal bovine serum (FBS) and allowed to attach overnight at 37° C. (5% CO2). Following attachment, the cells were infected with RSV A2 (MOI=5) in 35 mL MEM+2% FBS. At 20 hours post-infection, the media was replaced with MEM+2% FBS supplemented with 2 μg/mL actinomycin D and returned to 37° C. for one hour. The cells were then washed once with PBS and treated with 35 mL of PBS+250 μg/mL lyso-lecithin for one minute, after which all liquid was aspirated. […] The supernatant (S3) fraction, containing the enriched RSV RNP complexes, was collected and the protein concentration determined by UV absorbance at 280 nm. […]
Transcription reactions contained 25 μg of crude RSV RNP complexes in 30 μL of reaction buffer [50 mM TRIS-acetate (pH 8.0), 120 mM potassium acetate, 5% glycerol, 4.5 mM MgCl2, 3 mM DTT, 2 mM ethyleneglycol-bis(2-aminoethylether)-tetraacetic acid (EGTA), 50 μg/mL BSA, 2.5 U RNasin (Promega), ATP, GTP, UTP, CTP and 1.5 uCi [α-32P] […] The radiolabled nucleotide used in the transcription assay was selected to match the nucleotide analog being evaluated for inhibition of RSV RNP transcription. […]

RSV strain A2 = assay: microbe, parasite or virus in culture; type: cell-based; conditions: human respiratory syncytial virus, HEp-2, 96 h, Table 3; HEp-2 cells, RSV A2, 4 days; read-out: RSV HEp-2 EC50
Procedure, shortened: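 Cytopathic-effect protection assay: HEp-2 cells (50,000/mL) infected with pre-titered RSV A2 onto 3-fold serial compound dilutions, incubated 4 days at 37° C. Cell viability read by CellTiter-Glo luminescence; percent inhibition derived against 0% and 100% virus-inhibition controls.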

HRV16 = HRV16 HeLa EC50 (cytopathic effect in H1-HeLa cells); type: cell-based; conditions: 96 h, Table 3; H1-HeLa cells, 96 h; read-out: HRV16 HeLa EC50
Procedure, shortened: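 H1-HeLa cells seeded one day before, given 3-fold serial compound dilutions in triplicate just prior to infection with pre-titrated virus. Incubated 96 h at 33 °C/5% CO2; protection from cytopathic effect read as viability by CellTiter-Glo luminescence, normalised to infected untreated (0%) and uninfected (100%) controls.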

RSV A2 = assay: RSV NHBE EC50 (RSV A2 antiviral assay in NHBE cells); type: cell-based; conditions: human respiratory syncytial virus, NHBE, 96 h, Table 3; NHBE cells, RSV A2, 4 days; read-out: RSV NHBE EC50
Procedure, shortened: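 NHBE cells (≤6 passages) were seeded at 7,500 cells per well, treated with 3-fold serially diluted compound at 0.05% DMSO, then infected with RSV A2 at 1×10^4.5 TCID/mL. After 4 days at 37° C, viability was measured by CellTiter-Glo luminescence.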

DENV2 replicon = assay: DENV-2 Huh-7 Rep EC50 (replicon luminescence); type: cell-based; conditions: Dengue virus, DENV2, Huh-7, 48 h, read-out: DENV-2 REP Huh7 EC50, Table 3; Huh-7 DENV2 replicon cells, 48 hours
Procedure, shortened: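 Huh-7 cells carrying a DENV2 replicon, 5,000 cells/well, were incubated with dosed compounds for 48 h at 37° C. EnduRen live-cell substrate was added 1.5 h before luminescence reading. EC50 came from dose-response against DMSO-only wells.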

[3] = tested on: Dengue 2, New Guinea strain (NGC); assay: DENV moDC EC50 (qPCR in human monocyte-derived dendritic cells); type: cell-based; conditions: Dengue virus, Dendritic cell; Table 3; human moDCs, 48 hours
Method: Human monocyte-derived dendritic cells (moDCs) were derived from CD14+ monocytes (AllCells) cultured in Human Mo-DC Differentiation medium containing GM-CSF and IL-4 (Miltenyi Biotec). On day 7, moDCs were harvested by mechanical disruption, washed and suspended in serum-free RPMI. moDCs were infected with Vero-derived Dengue 2, New Guinea strain (NGC) at a MOI=0.1 for two hours in serum-free RPMI with gentle agitation at 37° C. Cells were washed and resuspended in 10% serum-containing RPMI (Gibco, supplemented with sodium pyruvate, NEAA, Penicillin-Streptomycin). […] were plated in triplicate in 96-well plates with compounds dispensed at graded doses (Hewlett-Packard D300 Digital Dispenser). All wells were normalized to 0.25% DMSO. At 48 hours, cells were washed with 1×PBS and all supernatants removed. Total RNA was extracted using RNEasy 96 plates (Qiagen) and used to generate first-strand cDNA using XLT cDNA 5× Supermix (QuantaBio). cDNA was used as a template in a Taqman qPCR duplex reaction specific to DENV2 viral and GAPDH gene expression. EC50 values were determined using Prism Graphpad software, with normalization to a positive control and no compound negative control wells.

T1 sequence (O00411 42-1230): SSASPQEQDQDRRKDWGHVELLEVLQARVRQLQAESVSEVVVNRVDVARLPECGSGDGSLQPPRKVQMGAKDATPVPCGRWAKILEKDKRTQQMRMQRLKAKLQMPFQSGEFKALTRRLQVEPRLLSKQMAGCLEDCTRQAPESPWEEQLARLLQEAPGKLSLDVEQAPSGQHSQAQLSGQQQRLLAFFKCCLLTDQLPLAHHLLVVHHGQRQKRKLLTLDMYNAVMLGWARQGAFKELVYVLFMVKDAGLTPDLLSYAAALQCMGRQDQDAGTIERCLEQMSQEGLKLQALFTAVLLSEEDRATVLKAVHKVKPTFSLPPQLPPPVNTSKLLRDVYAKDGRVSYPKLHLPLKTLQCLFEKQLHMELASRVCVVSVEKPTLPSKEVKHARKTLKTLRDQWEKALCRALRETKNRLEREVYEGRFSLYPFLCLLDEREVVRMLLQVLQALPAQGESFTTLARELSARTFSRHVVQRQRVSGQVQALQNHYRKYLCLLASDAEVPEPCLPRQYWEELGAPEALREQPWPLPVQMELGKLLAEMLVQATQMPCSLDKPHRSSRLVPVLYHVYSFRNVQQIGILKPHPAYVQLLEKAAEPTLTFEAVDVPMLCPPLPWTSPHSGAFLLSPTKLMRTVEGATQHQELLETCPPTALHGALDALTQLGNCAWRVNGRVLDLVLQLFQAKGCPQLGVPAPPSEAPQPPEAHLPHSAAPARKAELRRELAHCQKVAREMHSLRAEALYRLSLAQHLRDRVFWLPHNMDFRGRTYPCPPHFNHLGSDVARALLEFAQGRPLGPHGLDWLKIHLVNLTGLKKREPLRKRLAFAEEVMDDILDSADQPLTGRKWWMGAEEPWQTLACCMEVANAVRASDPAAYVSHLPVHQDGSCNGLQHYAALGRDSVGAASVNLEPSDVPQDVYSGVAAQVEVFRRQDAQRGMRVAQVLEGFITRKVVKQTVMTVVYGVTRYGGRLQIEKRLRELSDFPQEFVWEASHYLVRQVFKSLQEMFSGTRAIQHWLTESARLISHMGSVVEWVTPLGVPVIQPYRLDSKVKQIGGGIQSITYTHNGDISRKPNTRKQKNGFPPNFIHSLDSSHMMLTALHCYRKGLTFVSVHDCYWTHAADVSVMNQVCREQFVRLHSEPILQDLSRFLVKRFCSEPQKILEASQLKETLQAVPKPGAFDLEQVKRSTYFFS
T2 sequence (P03421 whole entry): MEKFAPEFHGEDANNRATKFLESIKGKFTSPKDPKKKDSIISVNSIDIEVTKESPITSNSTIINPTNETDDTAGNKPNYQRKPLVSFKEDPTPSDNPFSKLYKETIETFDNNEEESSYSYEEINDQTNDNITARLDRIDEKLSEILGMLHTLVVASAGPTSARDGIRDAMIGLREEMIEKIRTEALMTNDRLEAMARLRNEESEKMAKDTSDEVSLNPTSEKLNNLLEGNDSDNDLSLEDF
T2 sequence (P28887 whole entry): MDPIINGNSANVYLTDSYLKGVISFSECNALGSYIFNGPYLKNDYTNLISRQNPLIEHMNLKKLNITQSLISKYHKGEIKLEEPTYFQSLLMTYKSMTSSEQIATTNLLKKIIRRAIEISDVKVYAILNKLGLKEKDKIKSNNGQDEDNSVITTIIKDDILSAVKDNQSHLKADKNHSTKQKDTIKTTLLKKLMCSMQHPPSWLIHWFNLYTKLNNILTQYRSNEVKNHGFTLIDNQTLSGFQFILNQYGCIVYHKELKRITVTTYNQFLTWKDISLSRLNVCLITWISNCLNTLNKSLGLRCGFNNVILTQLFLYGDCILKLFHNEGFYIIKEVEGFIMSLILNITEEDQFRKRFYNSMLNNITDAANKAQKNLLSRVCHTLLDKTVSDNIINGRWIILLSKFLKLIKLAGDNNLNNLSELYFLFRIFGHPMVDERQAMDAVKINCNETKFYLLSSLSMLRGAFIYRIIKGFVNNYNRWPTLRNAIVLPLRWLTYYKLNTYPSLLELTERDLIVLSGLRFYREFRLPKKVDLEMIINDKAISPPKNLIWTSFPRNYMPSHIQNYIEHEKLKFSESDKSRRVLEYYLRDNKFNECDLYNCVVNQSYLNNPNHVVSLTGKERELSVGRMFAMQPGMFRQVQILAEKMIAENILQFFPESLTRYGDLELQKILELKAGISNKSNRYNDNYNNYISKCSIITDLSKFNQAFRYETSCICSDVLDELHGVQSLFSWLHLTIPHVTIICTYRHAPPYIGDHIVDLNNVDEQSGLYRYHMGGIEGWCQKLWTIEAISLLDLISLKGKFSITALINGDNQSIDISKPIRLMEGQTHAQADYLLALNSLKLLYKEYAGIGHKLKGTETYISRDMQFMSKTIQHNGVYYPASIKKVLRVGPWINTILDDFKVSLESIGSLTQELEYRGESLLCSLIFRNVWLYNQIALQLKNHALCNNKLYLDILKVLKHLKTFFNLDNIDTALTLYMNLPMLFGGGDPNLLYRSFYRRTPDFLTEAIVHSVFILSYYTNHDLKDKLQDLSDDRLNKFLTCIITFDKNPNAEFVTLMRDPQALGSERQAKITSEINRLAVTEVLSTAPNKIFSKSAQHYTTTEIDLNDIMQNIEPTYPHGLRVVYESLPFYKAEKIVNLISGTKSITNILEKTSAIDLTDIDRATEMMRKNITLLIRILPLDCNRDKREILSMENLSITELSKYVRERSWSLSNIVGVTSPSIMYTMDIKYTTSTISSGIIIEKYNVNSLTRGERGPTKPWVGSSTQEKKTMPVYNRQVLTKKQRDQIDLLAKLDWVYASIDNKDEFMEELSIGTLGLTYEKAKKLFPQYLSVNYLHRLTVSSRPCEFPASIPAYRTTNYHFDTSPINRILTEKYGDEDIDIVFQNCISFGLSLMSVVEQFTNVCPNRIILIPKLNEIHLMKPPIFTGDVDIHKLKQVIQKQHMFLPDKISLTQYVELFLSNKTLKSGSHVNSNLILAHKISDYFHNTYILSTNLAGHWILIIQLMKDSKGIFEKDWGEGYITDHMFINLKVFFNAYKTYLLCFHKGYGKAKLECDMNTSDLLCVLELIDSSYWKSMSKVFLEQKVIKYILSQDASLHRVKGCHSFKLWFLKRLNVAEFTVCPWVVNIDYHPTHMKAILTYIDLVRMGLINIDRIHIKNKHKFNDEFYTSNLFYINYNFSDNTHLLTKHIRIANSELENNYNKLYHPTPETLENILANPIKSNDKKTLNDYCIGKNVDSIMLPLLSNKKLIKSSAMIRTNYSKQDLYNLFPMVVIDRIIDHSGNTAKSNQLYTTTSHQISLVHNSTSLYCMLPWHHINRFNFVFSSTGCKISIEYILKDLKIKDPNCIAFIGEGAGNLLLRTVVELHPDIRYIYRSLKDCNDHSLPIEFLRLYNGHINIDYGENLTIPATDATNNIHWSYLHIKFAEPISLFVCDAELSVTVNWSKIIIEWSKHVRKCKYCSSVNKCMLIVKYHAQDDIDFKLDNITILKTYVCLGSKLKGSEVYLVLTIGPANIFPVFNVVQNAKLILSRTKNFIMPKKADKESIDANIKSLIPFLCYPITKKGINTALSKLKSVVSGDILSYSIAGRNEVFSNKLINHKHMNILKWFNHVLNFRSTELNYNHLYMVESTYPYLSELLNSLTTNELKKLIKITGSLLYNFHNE

SMILES | pIC50 (POLRMT [1]) | pIC50 (DENV2 NS5) | POLRMT SNI % (POLRMT [2]) | pIC50 (RSV RNP complexes) | pEC50 (RSV strain A2) | pEC50 (HRV16) | pEC50 (RSV A2) | pEC50 (DENV2 replicon) | pEC50 [3]
N#C[C@]1(COP(=O)(O)OP(=O)(O)OP(=O)(O)O)O[C@@H](c2ccc3c(N)ncnn23)[C@H](O)[C@@H]1O [—CN] | < 3.70 | 6.08 | 0.6% | 7.36 | – | – | – | – | –
Nc1ncnn2c([C@@H]3O[C@](CCl)(COP(=O)(O)OP(=O)(O)OP(=O)(O)O)[C@@H](O)[C@H]3O)ccc12 [—CH2Cl] | – | 5.15 | 0.11% | 5.96 | – | – | – | – | –
CCC(=O)O[C@H]1[C@H](c2ccc3c(N)ncnn23)O[C@](C#N)(COP(=O)(N[C@@H](C)C(=O)OCC2CCC2)N[C@@H](C)C(=O)OCC2CCC2)[C@H]1OC(=O)CC [Example 125, ((2R,3S,4R,5S)-5-(4-aminopyrrolo[2,1-f][1,2,4]triazin-7-yl)-2-cyano-3,4-dipropionatetetrahydrofuran-2-yl)methyl bis-cyclobutylmethyl L-alaninate phosphate] | – | – | – | – | 6.15 | 5.69 | 7.10 | 4.31 | 4.68
[N-]=[N+]=N[C@]1(COP(=O)(O)OP(=O)(O)OP(=O)(O)O)O[C@@H](c2ccc3c(N)ncnn23)[C@H](O)[C@@H]1O [—N3] | 6.05 | 6.85 | 132% | – | – | – | – | – | –
